Laboratory results from the CheMixHub drug solubility set.

Assay: xn = mol fraction of the nth substance listed, in the solute-free solvent

c1ccc2[nH]c(-c3cscn3)nc2c1 + CC#N + O
solubility (g/100 g solution)
Conditions	283.15 K	288.15 K	293.15 K	298.15 K	303.15 K	308.15 K	313.15 K	318.15 K	323.15 K
x2 = 0.04651	0.00121	0.00153	0.00195	0.00251	0.00312	0.00391	0.00486	0.00604	0.00759
x2 = 0.0989	0.00381	0.0048	0.0062	0.00795	0.00993	0.0122	0.0152	0.0184	0.0223
x2 = 0.1583	0.00804	0.0102	0.013	0.0163	0.0204	0.0251	0.0307	0.0373	0.0446
x2 = 0.2264	0.0137	0.0175	0.0219	0.027	0.0332	0.0403	0.0487	0.0587	0.0699
x2 = 0.3051	0.0203	0.0246	0.0311	0.0385	0.0467	0.0564	0.0675	0.0804	0.0944
x2 = 0.397	0.0272	0.0332	0.0403	0.049	0.0593	0.0713	0.0845	0.1	0.118
x2 = 0.506	0.0343	0.0409	0.0505	0.0604	0.0718	0.0849	0.1	0.121	0.141
x2 = 0.6372	0.0418	0.0499	0.0602	0.0732	0.0874	0.103	0.123	0.145	0.168
x2 = 0.798	0.0476	0.0573	0.0693	0.0823	0.0998	0.118	0.14	0.163	0.188

CN1CCN(C2=Nc3cc(Cl)ccc3Nc3ccccc32)CC1 + ClC(Cl)Cl + Cc1ccccc1
solubility (g/100 g solution)
Conditions	x2 = 0.07983	x2 = 0.1632	x2 = 0.2513	x2 = 0.3428	x2 = 0.4382	x2 = 0.5396	x2 = 0.6452	x2 = 0.7576	x2 = 0.8755
293.15 K	2.67	2.81	3.33	3.96	4.41	5.51	6.99	8.93	11.8
298.15 K	3.12	3.3	3.67	4.31	4.65	6.29	7.75	10.1	12.8
303.15 K	3.39	3.85	4.08	4.65	5.25	6.98	8.51	10.9	13.3
308.15 K	3.94	4.46	4.87	5.59	6.7	7.99	9.81	12.6	14.4
313.15 K	4.95	5.37	6	6.97	7.69	9.1	11.1	13.9	16.5
318.15 K	5.94	6.56	6.71	8.12	9.11	10.3	12.3	16.2	19.1
323.15 K	6.09	7.9	9.16	10	10.9	12.6	15.7	19.2	22.4

CCC(C)n1ncn(-c2ccc(N3CCN(c4ccc(OCC5COC(Cn6cncn6)(c6ccc(Cl)cc6Cl)O5)cc4)CC3)cc2)c1=O (centres undefined) + ClCCl + CCCCO
solubility (g/100 g solution)
Conditions	x2 = 0.08928	x2 = 0.1807	x2 = 0.2744	x2 = 0.3704	x2 = 0.4687	x2 = 0.5696	x2 = 0.6731	x2 = 0.7792	x2 = 0.8882
288.15 K	0.0509	0.143	0.594	1.83	4.18	9.32	14.8	19.8	22
293.15 K	0.0634	0.189	0.775	2.27	5.04	10.4	16	20.9	23.1
298.15 K	0.078	0.249	1	2.81	5.97	11.6	17	22.1	24.2
303.15 K	0.0948	0.323	1.28	3.4	7.13	12.8	18.2	23.1	25.3
308.15 K	0.115	0.412	1.64	4.11	8.37	14	19.3	24.2	26.4

Nc1cccc(S(=O)(=O)c2cccc(N)c2)c1 + CCO + O
solubility (g/100 g solution)
Conditions	283.15 K	288.15 K	293.15 K	298.15 K	303.15 K	308.15 K	313.15 K	318.15 K	323.15 K	328.15 K
x2 = 0.04165	0.0709	0.0964	0.128	0.168	0.215	0.284	0.356	0.459	0.577	0.72
x2 = 0.08908	0.129	0.173	0.226	0.3	0.383	0.491	0.619	0.788	0.987	1.23
x2 = 0.1436	0.209	0.277	0.357	0.462	0.591	0.744	0.941	1.16	1.45	1.78
x2 = 0.2068	0.318	0.41	0.509	0.646	0.822	1.02	1.25	1.51	1.84	2.24
x2 = 0.2812	0.455	0.561	0.706	0.874	1.07	1.3	1.56	1.89	2.26	2.69
x2 = 0.3698	0.604	0.732	0.907	1.11	1.34	1.64	1.92	2.33	2.7	3.21
x2 = 0.4772	0.76	0.93	1.14	1.34	1.62	1.92	2.28	2.69	3.15	3.7
x2 = 0.6101	0.914	1.09	1.31	1.55	1.88	2.19	2.57	3.03	3.51	4.06
x2 = 0.7788	1.1	1.29	1.52	1.79	2.08	2.43	2.81	3.25	3.75	4.28
